Reference: the supplement of paper PMC10307832

Tests used:
Motesanib + Trametinib = compound: CC1(C)CNc2cc(NC(=O)c3cccnc3NCc3ccncc3)ccc21 [Motesanib] + CC(=O)Nc1cccc(-n2c(=O)n(C3CC3)c(=O)c3c(Nc4ccc(I)cc4F)n(C)c(=O)c(C)c32)c1 [Trametinib] (partner 0.02 µM); test: relative viability (nuclei count vs DMSO), 5 days (fraction); higher = more cells survive
Procedure, shortened: (§1)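 Dosing by pin tool came one day after lung cancer cell lines were seeded in 1536-well plates, using either one drug or a fixed anchor-drug dose plus five library-drug doses (not always all listed) in √10 steps. After 5 days, nuclei were counted on 4× images. Relative viability is treated-well nuclei count divided by vehicle-well nuclei count, and values are medians of duplicate plates.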

Motesanib + AZD7762 = compound: CC1(C)CNc2cc(NC(=O)c3cccnc3NCc3ccncc3)ccc21 [Motesanib] + NC(=O)Nc1cc(-c2cccc(F)c2)sc1C(=O)N[C@H]1CCCNC1 [AZD7762] (partner 0.2 µM); test: as above
Procedure, shortened: as §1

Cell Line	relative viability (Motesanib + Trametinib; first compound 0.01 µM)	relative viability (Motesanib + Trametinib; first compound 0.03162 µM)	relative viability (Motesanib + Trametinib; first compound 0.1 µM)	relative viability (Motesanib + Trametinib; first compound 0.3162 µM)	relative viability (Motesanib + Trametinib; first compound 1 µM)	relative viability (Motesanib + AZD7762; first compound 0.01 µM)	relative viability (Motesanib + AZD7762; first compound 0.03162 µM)	relative viability (Motesanib + AZD7762; first compound 0.1 µM)	relative viability (Motesanib + AZD7762; first compound 0.3162 µM)	relative viability (Motesanib + AZD7762; first compound 1 µM)
201T	0.743	0.71	0.736	0.722	0.742	0.592	0.617	0.734	0.637	0.672
A-427	0.742	0.702	0.774	0.775	0.762	0.709	0.733	0.821	0.775	0.668
ABC-1						0.811	1	0.762	0.904	0.846
BEN	0.996	1.01	0.983	1.01	1.1	0.617	0.877	0.645	0.576	0.799
CAL-12T	0.324	0.316	0.33	0.402	0.419	0.518	0.637	0.684	0.69	0.578
COR-L23	0.352	0.654	0.602	0.708	0.74					
COR-L 105	0.451	0.383	0.41	0.422	0.448					
ChaGo-K-1	0.894	0.889	0.91	0.942	0.95	0.89	0.812	0.804	0.836	0.795
EKVX	0.303	0.414	0.344	0.459	0.522	0.716	0.653	0.684	0.68	0.665
EMC-BAC-2	0.756	0.909	0.861	0.797	0.948	1.07	1.1	1.09	1.2	1.04
EPLC-272H	0.287	0.289	0.286	0.299	0.341	0.145	0.268	0.151	0.21	0.267
H3255	0.533	0.681	0.684	0.626	0.67	0.846	0.986	0.884	0.816	0.909
HARA	0.649	0.454	0.598	0.918	0.441	0.17	0.277	0.48	0.362	0.207
HCC-15	0.377	0.335	0.364	0.406	0.376	1.34	1.18	1.06	1.36	1.33
HCC-44	1.01	1.06	1.05	1.12	1.19	0.93	1.05	1.13	1.08	1.02
HCC-78	0.653	0.671	0.701		0.735	0.657	0.547	0.907		0.795
HCC-366	0.396	0.302	0.282	0.385	0.334	0.278	0.214	0.46	0.248	0.207
HCC-827	0.442	0.593	0.505	0.541	0.623	0.216	0.29	0.196	0.213	0.175
